Patent US6825185B2, “Substituted aryl compounds as novel cyclooxygenase-2 selective inhibitors, compositions and methods of use” (NitroMed, Inc., priority 2000, dated 2004)

Assays:
COX-2 [1] = molecular target: T1, COX-2 (Homo sapiens, UniProt P35354); assay: Human COX-2 enzyme activity (COX Inhibitor Screening Assay, prostaglandin EIA); format: biochemical; set-up: purchased Cayman Chemical; conditions: test compound at 10 μM
T1 sequence (P35354 18-604): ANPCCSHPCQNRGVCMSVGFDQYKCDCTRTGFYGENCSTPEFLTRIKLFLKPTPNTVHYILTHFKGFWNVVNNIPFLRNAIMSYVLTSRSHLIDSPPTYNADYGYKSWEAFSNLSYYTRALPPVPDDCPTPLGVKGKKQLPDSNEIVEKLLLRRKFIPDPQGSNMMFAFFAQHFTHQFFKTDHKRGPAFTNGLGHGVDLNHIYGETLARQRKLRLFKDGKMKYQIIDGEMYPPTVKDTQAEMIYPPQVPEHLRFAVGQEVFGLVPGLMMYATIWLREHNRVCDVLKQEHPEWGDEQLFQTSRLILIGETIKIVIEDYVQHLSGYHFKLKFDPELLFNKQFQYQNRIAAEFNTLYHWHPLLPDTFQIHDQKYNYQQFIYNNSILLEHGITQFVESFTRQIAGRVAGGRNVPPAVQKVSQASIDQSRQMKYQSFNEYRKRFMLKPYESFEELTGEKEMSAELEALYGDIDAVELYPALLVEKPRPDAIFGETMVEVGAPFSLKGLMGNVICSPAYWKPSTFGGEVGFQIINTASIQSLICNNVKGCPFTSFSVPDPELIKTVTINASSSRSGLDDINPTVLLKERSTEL
Method: (§1) The human COX-1 and COX-2 enzyme activities and the measurement of the prostaglandin products synthesized were performed using the COX Inhibitor Screening Assay (Cayman Chemical, Ann Arbor, Mich.), which also contained the Prostaglandin Screening EIA Kit, used for prostaglandin quantification). The test compounds were dissolved at 50 times the highest final reaction concentration in DMSO or any other suitable solvent as stock solutions. These stock solutions were then diluted in the same solvent. Eight glass test tubes (13×100 mm) were placed in a 25° C. water bath. To each test tube was added 950 μL of reaction buffer (0.1 M Tris-HCl, pH 8.0, containing 5 mM EDTA, and 2 mM phenol), 10 μL of 100 µM heme solution, and 10 μL (5 units) of either human COX-1 or COX-2 enzyme and the resulting mixture was incubated for 2 minutes. Twenty μL of the solvent was added to one tube (100% initial activity or solvent control) and 20 μL of each dilution of the test compound was added to one tube each. Each tube was vortexed immediately after the addition. The enzyme was incubated with the inhibitor for 20 minutes at 25° C. The enzymatic reaction was then initiated by the addition of 10 μL of freshly prepared 10 mM arachidonic acid (neutralized with KOH), vortexed and then incubated for 2 minutes (or, in some cases as indicated, 30 seconds) at 37° C. The reaction was terminated by the addition of 50 μL of 1 M HCl, vortexed and placed at room temperature. One hundred μL of a saturated stannous chloride solution (50 mg/mL of 0.1 M HCl) was added and the reaction mixture was allowed to stand at room temperature for at least 5 minutes.
(§2) The prostaglandins (PG) produced in the reactions were assayed, after a 2,000-fold dilution, using the Prostaglandin Screening EIA Kit (Cayman Chemical, Ann Arbor, Mich.). The assay contains an antibody with broad specificity for all the prostaglandin families (PGF, PGE, PGD, and thromboxane B-type) synthesized in the COX-1/COX-2 reactions. The synthesized prostaglandin competes with a PG-tagged acetylcholine esterase tracer for binding to the PG antibody. Binding of synthesized PG lowers the colorimetric development of the Ellman's Reagent (computed as %B/B0). The actual amount of synthesized PG was interpolated from a standard curve using known amounts of supplied prostaglandin E2 (PGE2) (PGE2 concentration vs. %B/B0). The data generated were the mean±standard deviation of triplicate wells in the EIA for a single reaction at a given inhibitor concentration.

COX-1 [2] = molecular target: T2, COX-1 (Homo sapiens, UniProt P23219); assay: Human COX-1 enzyme activity (COX Inhibitor Screening Assay, prostaglandin EIA); format: biochemical; set-up: purchased Cayman Chemical; conditions: test compound at 100 μM
T2 sequence (P23219 24-599): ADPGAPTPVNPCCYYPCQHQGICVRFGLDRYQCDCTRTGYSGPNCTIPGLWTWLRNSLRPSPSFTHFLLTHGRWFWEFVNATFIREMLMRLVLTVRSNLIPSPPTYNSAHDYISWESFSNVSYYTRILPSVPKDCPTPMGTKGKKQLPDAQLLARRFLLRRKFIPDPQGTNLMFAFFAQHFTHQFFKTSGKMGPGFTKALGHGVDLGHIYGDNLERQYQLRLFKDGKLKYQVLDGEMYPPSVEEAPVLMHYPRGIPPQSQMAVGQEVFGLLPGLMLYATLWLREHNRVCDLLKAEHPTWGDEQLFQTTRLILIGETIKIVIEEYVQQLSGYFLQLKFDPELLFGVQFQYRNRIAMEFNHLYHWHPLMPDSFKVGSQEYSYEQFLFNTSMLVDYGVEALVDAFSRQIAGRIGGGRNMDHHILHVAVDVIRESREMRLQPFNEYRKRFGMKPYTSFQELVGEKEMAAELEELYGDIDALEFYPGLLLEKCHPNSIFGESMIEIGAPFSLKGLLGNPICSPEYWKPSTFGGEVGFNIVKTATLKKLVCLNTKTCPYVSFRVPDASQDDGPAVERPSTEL
Method: as §1
as §2, with “concentration. A plot of % of control (i.e., the solvent control without inhibitor) vs. test compound inhibitor concentration for both isoenzymes was used to determine the IC50 's for COX-1 and COX-2 for that test compound, when IC50's were calculated. The % inhibition for COX-1 and COX-2 enzyme activity by the test compounds at the indicated concentrations are given in Table 1.” for “concentration.”

COX-1 [3] = molecular target: T2, COX-1; assay: COX-1 enzyme activity in human whole blood (A23187 stimulated, thromboxane B2 EIA); format: cell-based; set-up: Human blood (≈50 mL) from male or female donors who had not received any aspirin or NSAIDs for 14 days; endogenous in cells; host or cells: human whole blood from donors; conditions: test compound at 100 μM
Method: (§3) The assay for COX-1 and COX-2 enzyme activity, in the human whole blood was performed as described in Brideau et al., Inflamm Res., 45: 68-74 (1996)). Human blood (≈50 mL) from male or female donors who had not received any aspirin or NSAIDs for 14 days was collected at two local area blood donor centers and placed in polypropylene syringes containing sodium heparin (20 units per mL blood, final concentration). The blood was transported to the laboratory on ice packs and used within 1.5 hours of collection. Upon receipt in the laboratory, the blood was allowed to come to room temperature for 15 minutes prior to distribution in 1 mL aliquots per well of 24 well tissue culture plates. The plates were then placed on a gently rotating platform shaker in a 5% CO2 incubator at 37° C. for 15 minutes. Test compounds were dissolved in DMSO, at 1000 fold the final desired concentration, and further diluted, as indicated, in DMSO. One μL of each dilution of the test compound was added per well, in duplicate wells; wells not receiving test compound (e.g., basal, background or control wells) received 1 μL DMSO.
(§4) To induce COX-2, lipopolysaccharide (LPS) from E. coli (LPS, serotype 026:B6 or serotype 0127:B8, Sigma Chemical Co., St. Louis, Mo., Catalogue No. L3755 or L3129, respectively) was added at 10 μg/mL (2 μL of 5 mg/mL LPS in DMSO) to appropriate wells 15 minutes after the addition of the test compound. (Basal or background wells not incubated with LPS received 2 μL of DMSO.) For the stimulation of COX-1, the calcium ionophore, A23187 (free acid from Sigma Chemical Co., St. Louis, Mo., Catalogue No. C7522) was added at 25 μM (1 μL of 25 mM stock in DMSO) to separate wells 4.5 hours after the addition of the test compound. (Again, basal, background or control wells not stimulated with A23187 received 1 μL of DMSO.) At 5 hours after the addition of the test compound, all incubations were terminated by placement on ice and the addition of 2 mM EGTA (100 μL of 20 mM EGTA, tetrasodium, in PBS (phosphate buffered saline) without Ca^++ and Mg^++, pH 7.2)). The resulting solutions, were transferred by polyethylene transfer pipettes to 15 mL polypropylene centrifuge tubes and centrifuged at 1200 g for 10 minutes at 4° C. One hundred μL of plasma was removed from each blood sample and added to 1 mL of methanol in new 15 mL polypropylene centrifuge tubes, vortexed, and stored overnight at −20° C. The next day, the samples were centrifuged at 2000 g for 10 minutes at 4° C. and the supernatants transferred to glass tubes and evaporated to dryness. The samples were assayed for thromboxane B2 using EIA kits supplied by Cayman Chemical Co. (Ann Arbor, Mich., Catalogue No. 519031) in duplicate wells after reconstitution with EIA Buffer and appropriate dilution (2000 fold for COX-1 and 500 fold for Cox-2 samples).

COX-2 [4] = molecular target: T1, COX-2; assay: COX-2 enzyme activity in human whole blood (LPS induced, thromboxane B2 EIA); format: cell-based; set-up: Human blood (≈50 mL) from male or female donors who had not received any aspirin or NSAIDs for 14 days; endogenous in cells; host or cells: human whole blood from donors, LPS-induced; conditions: test compound at 10 μM
Method: as §3, with “Human” for “The assay for COX-1 and COX-2 enzyme activity, in the human whole blood was performed as described in Brideau et al., Inflamm Res., 45: 68-74 (1996)). Human”
as §4, with “(Basal or background wells not incubated with LPS received 2 μL of DMSO.) For the stimulation of COX-1, the calcium ionophore, A23187 (free acid from Sigma Chemical Co., St. Louis, Mo., Catalogue No. C7522) was added at 25 μM (1 μL of 25 mM stock in DMSO) to separate wells 4.5 hours after the addition of the test compound.” left out, “dryness.” for “dryness. The samples were assayed for thromboxane B2 using EIA kits supplied by Cayman Chemical Co. (Ann Arbor, Mich., Catalogue No. 519031) in duplicate wells after reconstitution with EIA Buffer and appropriate dilution (2000 fold for COX-1 and 500 fold for Cox-2 samples).”

melting point [°C]	inhibition at 100 µM (COX-1 [3]) [%]	inhibition at 10 µM (COX-2 [4]) [%]	Compound	COX-2 Inhibition (% at 10 μM) (COX-2 [1]) [%]	COX-1 Inhibition (% at 100 μM) (COX-1 [2]) [%]	COX-1 Inhibition (% at 100 μM) (COX-1 [3]) [%]
			CS(=O)(=O)c1ccc(-c2cc3c(cc2CN2CCCC(CO)C2)OCO3)cc1 (stereo not shown) [Example 8b, 1-(6-((3-(Hydroxymethyl)piperidyl)methyl)(2H-benzo(3,4-d)1,3-dioxolan-5-yl))-4-(methylsulfonyl)benzene]	30	0	
			CS(=O)(=O)c1ccc(-c2cc3c(cc2CC2CCCC2)OCO3)cc1 [Example 10b, 4-(6-(Cyclopenthylmethyl)(2H-benzo(3,4-d)1,3-dioxolan-5-yl))-1-(methylsulfonyl)benzene]	70	20	
			CS(=O)(=O)c1ccc(-c2cc3c(cc2C(=O)c2cccnc2)OCO3)cc1 [Example 6d, 6-(4-(Methylsulfonyl)phenyl)(2H-benzo(d)1,3-dioxolan-5-yl) 3-pyridyl ketone]	20	20	
191 to 193	90	55	CS(=O)(=O)c1ccc(-c2cc3c(cc2C(=O)c2cc(F)cc(F)c2)OCCO3)cc1 [Example 22, 3,5-Difluorophenyl 7-(4-(methylsulfonyl)phenyl)(2H, 3H-benzo(e)1,4-dioxin-6-yl) ketone]			
			CS(=O)(=O)c1ccc(-c2cc3c(cc2C=C2CCCCCC2)OCO3)cc1 [Example 11b, 4-(6-(Cycloheptylidenemethyl)(2H-benzo(3,4-d)1,3-dioxolan-5-yl))-1-(methylsulfonyl) benzene]		10	40
105 to 106	40	40	CS(=O)(=O)c1ccc(-c2ccccc2C(=O)c2cccc(F)c2)cc1 [Example 25c, 3-Fluorophenyl 2-(4-(methylsulfonyl)phenyl)phenyl ketone]			
			CS(=O)(=O)c1ccc(-c2cc3c(cc2CN2CCCC(CO[N+](=O)[O-])C2)OCO3)cc1 (stereo not shown) [Example 8c, 4-(Methylsulfonyl)-1-(6-((3-((nitrooxy)methyl)piperidyl)methyl)(2H-benzo(3,4-d) 1,3-dioxolan-5-yl))benzene]	80	25	
238 to 241	50	30	CS(=O)(=O)c1ccc(-c2cc3c(cc2Cc2cc(F)cc(F)c2)OC(C(N)=O)CO3)cc1 (stereo not shown) [Example 21, 7-((3,5-Difluorophenyl)methyl)-6-(4-(methylsulfonyl)phenyl)-2H, 3H-benzo(e)1,4-dioxin-2-carboxamide]			
